The results in this text go back to article PMC2212407 (The Journal of Experimental Medicine, 1998).

Read-outs that look alike come from different tables or passages of the source.

Assay type in all cases: cell-based, human
Assay [1] deals with fresh PBMCs from patient 744. As to the kind of experiment: Proliferation assay of fresh PBMCs from patient 744.
The subject of assay [2] is fresh PBMCs from asymptomatic HIV-1+ patients.
For assay [3], the system named is fresh PBMCs from patient 024.
The subject of another assay is T cell line 024. As to the kind of experiment: Proliferation of CD4+ T cell line 024. Particulars: T cell line 024 initiated on day 71, autologous APCs.

With “Tetanus toxoid: the recall antigen tetanus toxoid”, the “Proliferation of fresh PBMCs from patient 744, result in words” value in assay [1] was “showed a response”. In addition, the “Mean proliferation (SI)” value was found to be 21 ± 65 in assay [2] (Total, 43 patients); 45 ± 117 in assay [2] (patients responding to PHA and tetanus toxoid only (n = 12)); 31 ± 32 in assay [2] (patients responding to PHA, tetanus toxoid, and HIV antigens (n = 12)).
For the substance LRPRGKKRYKLKHIV [p17-3/1], in assay [3], the “Proliferative response (SI)” value is 1. Also, the “Stimulation of T cell line 024, result in words” value in the assay on T cell line 024 was “failed to stimulate”.
Take LRPGGKKQYRLKHIV [p17-3/2]: in the assay with T cell line 024, the “Stimulation of T cell line 024, result in words” value is given as “failed to stimulate”.
